Measured values from patent US6034062A, “Bone morphogenetic protein (BMP)-9 compositions and their uses” (Genetics Institute, Inc., priority 1997, dated 2000).

Legend:
primary rat hepatocytes = experiment: Primary rat hepatocyte 3H-thymidine incorporation; format: cell-based; conditions: subconfluent primary rat hepatocytes, 36 hours, serum-free
Description: As a first indication of BMP-9 effects on confluent, serum starved HepG2 cells, cell proliferation is examined as determined by ^3 H-thymidine incorporation and cell counting. HepG2 cells are plated at […] in 96 well plates and cultured for 48 hours in DME/0.1% FCS to synchronize the cell cycle are treated for 24 hours with or without BMP-9 in the presence of 0.1% FCS. In ^3 H-thymidine incorporation assays, ^3 H-thymidine was included during the last 4 hours of treatment and cellular DNA was collected with a 96 well plate cell harvester. Proliferation was assayed by quantifying ethanol-precipitable ^3 H-thymidine incorporation by liquid scintillation counting. For cell counting assays, cells were trypsinized and counted with a hemacytometer. […] BMP-9 stimulates ^3 H-thymidine incorporation in HepG2 cells approximately five fold.
To determine if this proliferative effect of BMP-9 was unique to the HepG2 liver tumor cell line, primary rat hepatocytes were tested for effects of BMP-9 on ^3 H-thymidine incorporated as shown in FIG. 4.

[1] = tested on: BMP-9 receptors expressed on HepG2 cells; experiment: 125I-BMP-9 binding to HepG2 cells; conditions: HepG2 cells, 125I-BMP-9 and 250-fold excess of unlabeled ligand
Description: BMP-9 responsiveness in parenchymal liver cells is tested by screening four liver cell lines for their ability to bind iodinated, CHO-derived BMP-9. […] Specific binding of BMP-9 to HepG2 cells is carried out by incubating HepG2 cells grown to confluence in Dulbecco's Modified Eagle's Medium (DME) containing 10% heat-inactivated fetal calf serum (FCS) on gelatinized 6 well plates with 2 ng/ml ^125 I-BMP-9 and increasing concentrations of unlabelled BMP-9 in binding buffer (136.9 mM NaCl, 5.37 mM KCl, 1.26 mM CaCl2, 0.64 mM MgSO4, 0.34 mM Na2 HPO4, 0.44 mM KH2 PO4, 0.49 mM MgCl2, 25 mM HEPES and 0.5% BSA, pH 7.4) for 20 hours at 4° C. to achieve binding equilibrium. This incubation follows a one hour preincubation at 37° C. in binding buffer alone. For crosslinking experiments, the cells were incubated with 500 μM disuccinimidyl suberate for 20 minutes at […] following binding. Cell extracts were analyzed on SDS-PAGE. […] To test the binding specificity of the receptors for BMP-9, HepG2 cells were incubated with ^125 I-BMP-9 and a 250-fold excess of different unlabeled ligands.

[2] = tested on: Articular cartilage explants from calf carpal joints; experiment: Articular cartilage assay (proteoglycan synthesis, sulfate incorporation); format: cell-based; conditions: 100 ng/ml, calf articular cartilage explants
Description: The effect of BMP-9 on articular cartilage proteoglycan and DNA synthesis is assayed to determine if BMP-9 is involved in the regulation of metabolism of differentiated articular cartilage.
Articular cartilage explants from calf carpal joints are maintained in DMEM with 50 μg/ml ascorbate, 4 mM glutamine and antibiotics for 3 days. Cytokines (rhBMP-2, rhBMP-4, rhBMP-6 and rhBMP-9, IGF-1, bFGF (1-1000 ng/ml), and TGFβ (1-100 ng/ml)) are added to the medium and culture is continued for 3 more days. Medium is changed daily. Twenty-four hours prior to harvest, explants are pulsed with 50 μCi/ml ^35 SO4 or 25 μCi/ml ^3 H-thymidine. Explants are solubilized and separation of free isotope is performed by gel chromatography. Total DNA of each explant is measured by a spectrophotometric assay.

IMCD-3 cells = experiment: IMCD-3 cell condensation and tubulogenesis in collagen matrix; format: cell-based; conditions: IMCD-3 cells in 3-dimensional collagen gel, 100 ng/ml, 6 days, serum-free
Description: Several cell lines are tested for BMP-9 responsiveness in vitro. Cell proliferation, as indicated by [^3 H]thymidine incorporation, is determined in cell lines derived from kidney and lung. Cell proliferation is determined by measuring [^3 H]thymidine incorporation in subconfluent cells treated for 24 h with or without growth factors. NRK-52E (ATCC CRL 1571), WI-38 (ATCC CCL-75), CCD-11Lu (ATCC CCL-202), CCD-16Lu (ATCC CCL-204), and A-549 (ATCC CCL-185) cell lines are placed at 10^4 cells/well in 96 well plates and assayed for [^3 H]thymidine incorporation as described above. IMCD-3 cells (ATCC #CRL-2123) are cultured in a collagen matrix as described by Barros et al., PNAS USA 92:4412-4416 (1995), and treated with growth factors for 6 days to allow tubule formation.
In contrast, BMP-9 appeared to stimulate proliferation in several fibroblast cell lines derived from lung. […] The effect of rhBMP-9 on tubulogenesis was examined in IMCD-3 cells, another epithelial kidney cell line. […] It is therefore contemplated that both lung and kidney cells are physiological targets for BMP-9.

EGF: epidermal growth factor (NSDSECPLSHDGYCLHDGVCMYIEALDKYACNCVVGYIGERCQYRDLKWWELR; UniProt P01133 971-1023, looked up)
3H-thymidine incorporation (primary rat hepatocytes): markedly

TGF-β1: transforming growth factor β1
3H-thymidine incorporation (primary rat hepatocytes): inhibitory, not stimulatory | crossreactivity of BMP-9 receptors with unlabeled ligand [1]: no crossreactivity

TGFβ
proteoglycan synthesis [2]: significantly more active in stimulating proteoglycan synthesis

rhHGF: recombinant human HGF, inducer of tubulogenesis in IMCD-3 cells
cell condensation and tubulogenesis (IMCD-3 cells): induced a marked branching tubulogenesis
